Structures can show the parent of a compound that is named as a salt.
Biological target: T1, recombinant guanylate cyclase reporter cell line (Rattus norvegicus, UniProt P20595)
T1 construct: expressed in transfected cells
T1 sequence (P20595 1-619): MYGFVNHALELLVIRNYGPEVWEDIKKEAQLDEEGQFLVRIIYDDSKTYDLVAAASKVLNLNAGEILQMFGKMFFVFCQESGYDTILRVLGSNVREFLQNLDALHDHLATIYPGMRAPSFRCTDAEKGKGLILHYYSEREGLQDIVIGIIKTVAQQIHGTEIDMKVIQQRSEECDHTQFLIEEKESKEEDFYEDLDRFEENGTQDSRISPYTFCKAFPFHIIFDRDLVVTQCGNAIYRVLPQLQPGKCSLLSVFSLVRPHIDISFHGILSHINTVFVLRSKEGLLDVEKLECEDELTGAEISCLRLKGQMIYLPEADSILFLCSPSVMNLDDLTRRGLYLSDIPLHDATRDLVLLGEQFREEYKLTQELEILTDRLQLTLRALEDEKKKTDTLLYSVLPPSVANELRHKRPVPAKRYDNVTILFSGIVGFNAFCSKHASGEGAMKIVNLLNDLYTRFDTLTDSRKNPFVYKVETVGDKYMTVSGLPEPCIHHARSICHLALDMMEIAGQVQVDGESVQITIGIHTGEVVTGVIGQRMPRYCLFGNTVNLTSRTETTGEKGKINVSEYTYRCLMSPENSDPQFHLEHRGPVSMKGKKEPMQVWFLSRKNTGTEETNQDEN
T1 sequence (P19686 1-690 partner): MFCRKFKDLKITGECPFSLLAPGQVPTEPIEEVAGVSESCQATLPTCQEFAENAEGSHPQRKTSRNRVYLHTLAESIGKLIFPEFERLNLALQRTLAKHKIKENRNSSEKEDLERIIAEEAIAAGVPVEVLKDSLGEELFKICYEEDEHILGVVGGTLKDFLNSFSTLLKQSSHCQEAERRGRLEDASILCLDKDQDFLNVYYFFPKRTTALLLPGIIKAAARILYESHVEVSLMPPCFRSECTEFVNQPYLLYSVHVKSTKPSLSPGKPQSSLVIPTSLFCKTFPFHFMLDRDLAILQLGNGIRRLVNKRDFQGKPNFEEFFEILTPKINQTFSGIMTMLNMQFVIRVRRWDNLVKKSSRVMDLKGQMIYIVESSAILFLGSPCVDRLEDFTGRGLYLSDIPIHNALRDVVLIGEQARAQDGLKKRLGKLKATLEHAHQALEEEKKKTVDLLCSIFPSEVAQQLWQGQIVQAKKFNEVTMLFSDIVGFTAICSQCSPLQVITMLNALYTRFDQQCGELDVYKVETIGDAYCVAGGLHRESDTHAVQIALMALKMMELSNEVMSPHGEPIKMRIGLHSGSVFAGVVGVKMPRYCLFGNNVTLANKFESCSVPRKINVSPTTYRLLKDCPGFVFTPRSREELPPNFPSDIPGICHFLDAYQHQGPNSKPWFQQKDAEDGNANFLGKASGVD
Experiment: Effect on a recombinant guanylate cyclase reporter cell line
Assay type: cell-based
Conditions: for EC50: half maximal effective concentration; for MEC: minimum effective concentration
Method: B-1. Effect on a Recombinant Guanylate Cyclase Reporter Cell Line
The cellular activity of the compounds according to the invention was determined using a recombinant guanylate cyclase reporter cell line, as described in F. Wunder et al., Anal. Biochem. 339, 104-112 (2005).

SMILES	EC50	MEC
O=C(O)c1cnn(C2CCCN(c3cc(Cl)ccc3-c3ccc(N4CCN(CC5CCC5)CC4)cc3)C2)c1C(F)F (single isomer, unassigned; enantiomer 2) [Example 14, 1-[1-{4-Chloro-4′-[4-(cyclobutylmethyl)piperazin-1-yl][biphenyl]-2-yl}piperidin-3-yl]-5-(difluoromethyl)-1H-pyrazole-4-carboxylic acid hydrochloride (Enantiomer 2)]	13.2 nM	1.0 nM
O=C(O)c1cnn(C2CCCN(c3cc(Cl)ccc3-c3ccc(N4CCN(CC5(F)CCC5)CC4)cc3)C2)c1C(F)F (single isomer, unassigned; enantiomer 2) [Example 16, 1-[1-(4-Chloro-4′-{4-[(1-fluorocyclobutyl)methyl]piperazin-1-yl}[biphenyl]-2-yl)piperidin-3-yl]-5-(difluoromethyl)-1H-pyrazole-4-carboxylic acid hydrochloride (Enantiomer 2)]	2.6 nM	0.3 nM
O=C(O)c1cnn(C2CCCN(c3cc(Cl)ccc3-c3ccc(N4CCN(CCC(F)F)CC4)cc3)C2)c1C(F)F (single isomer, unassigned; enantiomer 2) [Example 22, 1-(1-{4-Chloro-4′-[4-(3,3-difluoropropyl)piperazin-1-yl][biphenyl]-2-yl}piperidin-3-yl)-5-(difluoromethyl)-1H-pyrazole-4-carboxylic acid hydrochloride (Enantiomer 2)]	1 nM	<0.3 nM
O=C(O)c1cnn(C2CCCN(c3cc(Cl)ccc3-c3ccc(N4CCN(CCOC(F)(F)F)CC4)cc3)C2)c1C(F)F (single isomer, unassigned; enantiomer 2) [Example 26, 1-[1-(4-Chloro-4′-{4-[2-(trifluoromethoxy)ethyl]piperazin-1-yl}[biphenyl]-2-yl)piperidin-3-yl]-5-(difluoromethyl)-1H-pyrazole-4-carboxylic acid hydrochloride (Enantiomer 2)]	6.5 nM	1.0 nM
O=C(O)c1cnn(C2CCCN(c3cc(Cl)ccc3-c3ccc(N4CCN(CC5(C(F)(F)F)CC5)CC4)cc3)C2)c1C(F)F (single isomer, unassigned; enantiomer 2) [Example 40, 1-{1-[4-Chloro-4′-(4-{[1-(trifluoromethyl)cyclopropyl]methyl}piperazin-1-yl) [biphenyl]-2-yl]piperidin-3-yl}-5-(difluoromethyl)-1H-pyrazole-4-carboxylic acid hydrochloride (Enantiomer 2)]	11.8 nM	1.0 nM
N#CCCN1CCN(c2ccc(-c3ccc(Cl)cc3N3CCCC(n4ncc(C(=O)O)c4C(F)F)C3)cc2)CC1 (single isomer, unassigned; enantiomer 2) [Example 46, 1-(1-{4-Chloro-4′-[4-(2-cyanoethyl)piperazin-1-yl][biphenyl]-2-yl}piperidin-3-yl)-5-(difluoromethyl)-1H-pyrazole-4-carboxylic acid (Enantiomer 2)]	1.7 nM	0.3 nM

Further compounds by falling EC50, results first:

EC50	MEC	SMILES
89 nM	3.0 nM	CC(C)(C)CN1CCN(c2ccc(-c3ccc(Cl)cc3N3CCCC(n4ncc(C(=O)O)c4C(F)F)C3)cc2)CC1 (single isomer, unassigned; enantiomer 2) [Example 13, 1-[(1-{4-Chloro-4′-[4-(2,2-dimethylpropyl)piperazin-1-yl][biphenyl]-2-yl}piperidin-3-yl]-5-(difluoromethyl)-1H-pyrazole-4-carboxylic acid hydrochloride (Enantiomer 2)]
42.5 nM	10.0 nM	O=C(O)c1cnn(C2CCCN(c3cc(Cl)ccc3-c3ccc(N4CCN(C5COC5)CC4)cc3)C2)c1C(F)F (single isomer, unassigned; enantiomer 2) [Example 43, 1-(1-{4-Chloro-4′-[4-(oxetan-3-yl)piperazin-1-yl][biphenyl]-2-yl}piperidin-3-yl)-5-(difluoromethyl)-1H-pyrazole-4-carboxylic acid hydrochloride (Enantiomer 2)]
42.5 nM	3.0 nM	O=C(O)c1cnn(C2CCCN(c3cc(Cl)ccc3-c3ccc(N4CCCC4)cc3)C2)c1C(F)F (single isomer, unassigned; enantiomer 2) [Example 45, 1-{1-[4-Chloro-4′-(pyrrolidin-1-yl)[biphenyl]-2-yl]piperidin-3-yl}-5-(difluoromethyl)-1H-pyrazole-4-carboxylic acid (Enantiomer 2)]
18 nM	3.0 nM	NC(=O)CCN1CCN(c2ccc(-c3ccc(Cl)cc3N3CCCC(n4ncc(C(=O)O)c4C(F)F)C3)cc2)CC1 (single isomer, unassigned; enantiomer 2) [Example 47, 1-(1-{4′-[4-(3-Amino-3-oxopropyl)piperazin-1-yl]-4-chloro[biphenyl]-2-yl}piperidin-3-yl)-5-(difluoromethyl)-1H-pyrazole-4-carboxylic acid (Enantiomer 2)]
13.9 nM	3.0 nM	CC(C)(F)C(=O)N1CCN(c2ccc(-c3ccc(Cl)cc3N3CCCC(n4ncc(C(=O)O)c4C(F)F)C3)cc2)CC1 (single isomer, unassigned; enantiomer 2) [Example 49, 1-(1-{4-Chloro-4′-[4-(2-fluoro-2-methylpropanoyl)piperazin-1-yl][biphenyl]-2-yl}piperidin-3-yl)-5-(difluoromethyl)-1H-pyrazole-4-carboxylic acid (Enantiomer 2)]
10.2 nM	1.0 nM	O=C(O)c1cnn(C2CCCN(c3cc(Cl)ccc3-c3ccc(N4CCN(CC56CC(F)(C5)C6)CC4)cc3)C2)c1C(F)F (single isomer, unassigned; enantiomer 2) [Example 17, 1-[1-(4-Chloro-4′-{4-[(3-fluorobicyclo[1.1.1]pentan-1-yl)methyl]piperazin-1-yl}[biphenyl]-2-yl)piperidin-3-yl]-5-(difluoromethyl)-1H-pyrazole-4-carboxylic acid hydrochloride (Enantiomer 2)]
7.5 nM	3.0 nM	CC(C)C(=O)N1CCN(c2ccc(-c3ccc(Cl)cc3N3CCCC(n4ncc(C(=O)O)c4C(F)F)C3)cc2)CC1 (single isomer, unassigned; enantiomer 2) [Example 48, 1-{1-[4-Chloro-4′-(4-isobutyrylpiperazin-1-yl)[biphenyl]-2-yl]piperidin-3-yl}-5-(difluoromethyl)-1H-pyrazole-4-carboxylic acid (Enantiomer 2)]
2.4 nM	0.3 nM	CC(F)(F)CN1CCN(c2ccc(-c3ccc(Cl)cc3N3CCCC(n4ncc(C(=O)O)c4C(F)F)C3)cc2)CC1 (single isomer, unassigned; enantiomer 2) [Example 25, 1-(1-{4-Chloro-4′-[4-(2,2-difluoropropyl)piperazin-1-yl][biphenyl]-2-yl}piperidin-3-yl)-5-(difluoromethyl)-1H-pyrazole-4-carboxylic acid hydrochloride (Enantiomer 2)]
1.9 nM	0.3 nM	O=C(O)c1cnn(C2CCCN(c3cc(Cl)ccc3-c3ccc(N4CCN(C(=O)C5CC5)CC4)cc3)C2)c1C(F)F (single isomer, unassigned; enantiomer 2) [Example 50, 1-(1-{4-Chloro-4′-[4-(3-cyclopropylcarbonyl)piperazin-1-yl][biphenyl]-2-yl}piperidin-3-yl)-5-(difluoromethyl)-1H-pyrazole-4-carboxylic acid (Enantiomer 2)]
1 nM	<0.3 nM	O=C(O)c1cnn(C2CCCN(c3cc(Cl)ccc3-c3ccc(N4CCN(CCC(F)(F)F)CC4)cc3)C2)c1C(F)F (single isomer, unassigned; enantiomer 2) [Example 23, 1-(1-{4-Chloro-4′-[4-(3,3,3-trifluoropropyl)piperazin-1-yl][biphenyl]-2-yl}piperidin-3-yl)-5-(difluoromethyl)-1H-pyrazole-4-carboxylic acid hydrochloride (Enantiomer 2)]
